# Tested on: Akt
# Assay: Akt Lum
# Assay type: cell-based
row,SMILES,IC50
1,"Nc1nc2c(c(-c3c(Cl)cc(Cl)cc3OCCn3cc(Cl)cn3)n1)CN(C(=O)NC1CC1)C2 [Example 2, 2-amino-N-cyclopropyl-4-{2,4-dichloro-6-[2-(4-chloro-1H-pyrazol-1-yl)ethoxy]phenyl}-5,7-dihydro-6H-pyrrolo[3,4-d]pyrimidine-6-carboxamide]",0.104 µM
2,Cc1cc(Cl)cc(OCCn2cccn2)c1-c1nc(N)nc2c1CN(C(=O)NC13CC(C1)C3)C2 [Example 3],0.0525 µM
3,"Cc1cc(Cl)cc(OCCn2cc(F)cn2)c1-c1nc(N)nc2c1CN(C(=O)NC13CC(C1)C3)C2 [Example 7, 2-amino-N-bicyclo[1.1.1]pent-1-yl-4-{4-chloro-2-[2-(4-fluoro-1H-pyrazol-1-yl)ethoxy]-6-methylphenyl}-5,7-dihydro-6H-pyrrolo[3,4-d]pyrimidine-6-carboxamide]",0.0209 µM
4,"Nc1nc2c(c(-c3c(Cl)cc(Cl)cc3OCCn3cc(F)cn3)n1)CN(C(=O)NC1CC1)C2 [Example 10, 2-amino-N-cyclopropyl-4-{2,4-dichloro-6-[2-(4-fluoro-1H-pyrazol-1-yl)ethoxy]phenyl}-5,7-dihydro-6H-pyrrolo[3,4-d]pyrimidine-6-carboxamide]",0.111 µM
5,"CC(F)(F)CNC(=O)N1Cc2nc(N)nc(-c3c(Cl)cc(Cl)cc3OCCn3cc(C#N)cn3)c2C1 [Example 11, 2-amino-4-{2,4-dichloro-6-[2-(4-cyano-1H-pyrazol-1-yl)ethoxy]phenyl}-N-(2,2-difluoropropyl)-5,7-dihydro-6H-pyrrolo[3,4-d]pyrimidine-6-carboxamide]",2.55 µM
6,"Nc1nc2c(c(-c3c(Cl)cc(Cl)cc3OCCn3cc(Br)cn3)n1)CN(C(=O)NC1CC1)C2 [Example 12, 2-amino-4-{2-[2-(4-bromo-1H-pyrazol-1-yl)ethoxy]-4,6-dichlorophenyl}-N-cyclopropyl-5,7-dihydro-6H-pyrrolo[3,4-d]pyrimidine-6-carboxamide]",0.175 µM
7,"Nc1nc2c(c(-c3c(Cl)cc(Cl)cc3OCCn3ccc(C(F)(F)F)n3)n1)CN(C(=O)NC1CC1)C2 [Example 13, 2-amino-N-cyclopropyl-4-(2,4-dichloro-6-{2-[3-(trifluoromethyl)-1H-pyrazol-1-yl]ethoxy}phenyl)-5,7-dihydro-6H-pyrrolo[3,4-d]pyrimidine-6-carboxamide]",0.66 µM
8,"Nc1nc2c(c(-c3c(Cl)cc(Cl)cc3OCCn3nccc3C(F)(F)F)n1)CN(C(=O)NC1CC1)C2 [Example 14, 2-amino-N-cyclopropyl-4-(2,4-dichloro-6-{2-[5-(trifluoromethyl)-1H-pyrazol-1-yl]ethoxy}phenyl)-5,7-dihydro-6H-pyrrolo[3,4-d]pyrimidine-6-carboxamide]",6.69 µM
9,"Cc1cc(C(F)(F)F)n(CCOc2cc(Cl)cc(Cl)c2-c2nc(N)nc3c2CN(C(=O)NC2CC2)C3)n1 [Example 15, 2-amino-N-cyclopropyl-4-(2,4-dichloro-6-{2-[3-methyl-5-(trifluoromethyl)-1H-pyrazol-1-yl]ethoxy}phenyl)-5,7-dihydro-6H-pyrrolo[3,4-d]pyrimidine-6-carboxamide]",18.3 µM
10,"Cc1cc(C(F)(F)F)nn1CCOc1cc(Cl)cc(Cl)c1-c1nc(N)nc2c1CN(C(=O)NC1CC1)C2 [Example 16, 2-amino-N-cyclopropyl-4-(2,4-dichloro-6-{2-[5-methyl-3-(trifluoromethyl)-1H-pyrazol-1-yl]ethoxy}phenyl)-5,7-dihydro-6H-pyrrolo[3,4-d]pyrimidine-6-carboxamide]",9.96 µM
